In patent publication US7524847B2, “Fused 1,3-dihydro-imidazole ring compounds” (Eisai R&D Management Co., Ltd., priority 2002, dated 2009):
Where a name gives a salt, the structure may show the parent alone.

Biological target: T1, DPP-IV obtained from pig kidney (Sus scrofa, UniProt P22411)
T1 construct: DPP-IV obtained from pig kidney; from tissue; host or cells: pig kidney
Assay: Measurement of DPPIV-inhibiting activity (in vitro experiment)
Format: biochemical
Details: DPP-IV from pig kidney 10 mU/mL, substrate Gly-Pro-p-nitroanilide 0.33 mM, 20 min preincubation, 20 min reaction, absorbance 405 nm
Description: DPP-IV obtained from pig kidney was dissolved in a reaction buffer (50 mM Tris-HCl pH7.4, 0.1% BSA) at 10 mU/mL, and 110 μL of this was used. 15 μL of the drug obtained from the aforementioned Examples was added, and this was incubated at room temperature for 20 minutes, and then 25 μL of a 2 mM solution of Gly-Pro-p-nitroanilide (final concentration 0.33 mM) was added to start the enzymatic reaction. The reaction time was 20 minutes, and 1 N phosphoric acid solution (25 μL) was added to stop the reaction.

T1 sequence (P22411 whole entry): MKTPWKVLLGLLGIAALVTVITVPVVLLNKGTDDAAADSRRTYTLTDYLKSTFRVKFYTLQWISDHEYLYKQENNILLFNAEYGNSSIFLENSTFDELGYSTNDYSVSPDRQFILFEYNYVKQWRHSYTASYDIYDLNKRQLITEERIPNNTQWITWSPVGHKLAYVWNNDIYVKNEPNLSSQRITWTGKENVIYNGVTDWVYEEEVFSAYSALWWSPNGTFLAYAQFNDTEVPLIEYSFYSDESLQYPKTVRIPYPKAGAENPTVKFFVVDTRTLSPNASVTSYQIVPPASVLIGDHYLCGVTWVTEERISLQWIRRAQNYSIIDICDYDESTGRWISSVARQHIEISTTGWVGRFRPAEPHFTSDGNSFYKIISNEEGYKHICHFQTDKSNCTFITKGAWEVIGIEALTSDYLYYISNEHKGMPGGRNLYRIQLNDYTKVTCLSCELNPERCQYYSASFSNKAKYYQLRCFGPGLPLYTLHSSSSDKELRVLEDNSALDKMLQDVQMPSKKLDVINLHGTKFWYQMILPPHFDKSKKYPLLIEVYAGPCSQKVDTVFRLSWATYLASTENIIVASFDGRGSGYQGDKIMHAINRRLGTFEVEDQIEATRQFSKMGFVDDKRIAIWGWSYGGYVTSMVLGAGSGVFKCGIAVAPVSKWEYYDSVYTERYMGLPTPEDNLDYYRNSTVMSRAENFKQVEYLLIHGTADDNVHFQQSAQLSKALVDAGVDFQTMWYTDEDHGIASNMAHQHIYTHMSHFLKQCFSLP

| IC50 [nM] | Compound |
| --- | --- |
| 2.92 | CC#CCn1c(=O)n(Cc2ccccc2C#N)c2nc(Cl)nc(N3CCNCC3)c21 [Example 29, 2-[7-(2-Butynyl)-2-chloro-8-oxo-6-(piperazin-1-yl)-7,8-dihydropurin-9-ylmethyl]benzonitrile trifluoroacetic acid salt] |
| 119 | C=CCn1c(=O)n(CC#CC)c2c(N3CCNCC3)nc(Oc3ccccc3C(N)=O)nc21 [Example 60, 2-[9-Allyl-7-(2-butynyl)-8-oxo-6-(piperazin-1-yl)-8,9-dihydro-7H-purin-2-yloxy]benzamide trifluoroacetic acid salt] |
| 26.6 | CC#CCn1c(=O)n(CCc2ccc(Br)cc2)c2nc(Cl)nc(N3CCNCC3)c21 [Example 35, 9-[2-(4-Bromophenyl)-ethyl]-7-(2-butynyl)-2-chloro-6-(piperazin-1-yl)-7,9-dihydropurin-8-one trifluoroacetic acid salt] |
| 139 | CC#CCn1c(=O)n(-c2ccccc2)c2ncnc(N3CCNCC3)c21 [Example 62, 7-(2-Butynyl)-9-phenyl-6-(piperazin-1-yl)-7,9-dihydropurin-8-one trifluoroacetic acid salt] |
| 47.4 | CC#CCn1c(=O)n(C)c2nc(Oc3ccccc3)nc(N3CCNCC3)c21 [Example 12, 7-(2-Butynyl)-9-methyl-2-phenoxy-6-(piperazin-1-yl)-7,9-dihydropurin-8-one trifluoroacetic acid salt] |
| 3010 | N#Cc1ccccc1Cn1c(=O)n(Cc2ccccc2)c2c(N3CCNCC3)nccc21 [Example 80, 2-(3-Benzyl-2-oxo-4-piperazin-1-yl-2,3-dihydroimidazo[4.5-c]pyridin-1-ylmethyl)benzonitrile] |
| 124 | CC#CCn1c(=O)n(C)c2nc(Oc3ccccc3C(N)=O)nc(N3CCNCC3)c21 [Example 14, 2-[7-(2-Butynyl)-9-methyl-8-oxo-6-(piperazin-1-yl)-8,9-dihydro-7H-purin-2-yloxy]benzamide trifluoroacetic acid salt] |
| 80.7 | CC#CCn1c(=O)n(Cc2ccccc2)c2nc(Cl)nc(N3CCNCC3)c21 [Example 36, 9-Benzyl-7-(2-butynyl)-2-chloro-6-(piperazin-1-yl)-7,9-dihydropurin-8-one trifluoroacetic acid salt] |
| 1130 | CC#CCn1c(=O)n(C)c2c(Oc3ccccc3C(N)=O)cnc(N3CCNCC3)c21 [Example 83, 2-[3-(2-Butynyl)-1-methyl-2-oxo-4-piperazin-1-yl-2,3-dihydro-1H-imidazo[4.5-c]pyridin-7-yloxy]-benzamide trifluoroacetic acid salt] |
| 409 | N#Cc1ccccc1Cn1c(=O)n(Cc2ccccc2)c2c(N3CCNCC3)ncc(Oc3ccccc3C(N)=O)c21 [Example 81, 2-[3-Benzyl-1-(2-cyanobenzyl)-2-oxo-4-piperazin-1-yl-2,3-dihydro-1H-imidazo[4.5-c]pyridin-7-yloxy]-benzamide trifluoroacetic acid salt] |
| 91.7 | CC#CCn1c(=O)n(-c2ccccc2)c2nc(Cl)nc(N3CCNCC3)c21 [Example 41, 7-(2-Butynyl)-2-chloro-9-phenyl-6-(piperazin-1-yl)-7,9-dihydropurin-8-one trifluoroacetic acid salt] |
| 32.3 | CC#CCn1c(=O)n(Cc2ccccc2C(N)=O)c2nc(Cl)nc(N3CCNCC3)c21 [Example 39, 2-[7-(2-Butynyl)-2-chloro-8-oxo-6-(piperazin-1-yl)-7,8-dihydropurin-9-ylmethyl]benzamide trifluoroacetic acid salt] |

The remaining lines, values behind:

| Compound | IC50 [nM] |
| --- | --- |
| CC#CCn1c(=O)n(-c2ccc(OC)cc2)c2nc(Cl)nc(N3CCNCC3)c21 [Example 43, 7-(2-Butynyl)-2-chloro-9-(4-methoxyphenyl)-6-(piperazin-1-yl)-7,9-dihydropurin-8-one trifluoroacetic acid salt] | 67.8 |
| CC#CCn1c(=O)n(-c2ccc(=O)n(C)c2)c2ncnc(N3CCNCC3)c21 [Example 68, 7-(2-Butynyl)-9-(1-methyl-6-oxo-1,6-dihydro-pyridin-3-yl)-6-(piperazin-1-yl)-7,9-dihydropurin-8-one trifluoroacetic acid salt] | 187 |
| CC#CCn1c(=O)n(C)c2nc(SC)nc(N3CCNCC3)c21 [Example 9, 7-(2-Butynyl)-2-methylsulfanyl-9-methyl-6-(piperazin-1-yl)-7,9-dihydropurin-8-one trifluoroacetic acid salt] | 214 |
| CC#CCn1c(=O)n(C)c2nc(O)nc(N3CCNCC3)c21 [Example 8, 7-(2-Butynyl)-2-hydroxy-9-methyl-6-(piperazin-1-yl)-7,9-dihydropurin-8-one trifluoroacetic acid salt] | 1160 |
| CC#CCn1c(=O)n(C)c2ncnc(N3CCNCC3)c21 [Example 76, 7-(2-Butynyl)-9-methyl-6-(piperazin-1-yl)-7,9-dihydropurin-8-one trifluoroacetic acid] | 1060 |
| C=Cc1ccc(-n2c(=O)n(CC#CC)c3c(N4CCNCC4)nc(OC)nc32)cc1 [Example 58, 7-(2-Butynyl)-2-methoxy-6-(piperazin-1-yl)-9-(4-vinyl-phenyl)-7,9-dihydropurin-8-one trifluoroacetic acid salt] | 15.6 |
| CC#CCn1c(=O)n(CC(=O)O)c2nc(Cl)nc(N3CCNCC3)c21 [Example 31, [7-(2-Butynyl)-2-chloro-8-oxo-6-(piperazin-1-yl)-7,8-dihydropurin-9-yl]acetic acid trifluoroacetic acid salt] | 259 |
| CC#CCn1c(=O)n(-c2ccc(C#N)cc2)c2nc(Cl)nc(N3CCNCC3)c21 [Example 42, 4-[7-(2-Butynyl)-2-chloro-8-oxo-6-(piperazin-1-yl)-7,8-dihydropurin-9-yl]benzonitrile trifluoroacetic acid salt] | 42.5 |
| CC#CCn1c(=O)n(C)c2nc(N(CC)CC)nc(N3CCNCC3)c21 [Example 3, 7-(2-Butynyl)-2-diethylamino-9-methyl-6-(piperazin-1-yl)-7,9-dihydropurin-8-one trifluoroacetic acid salt] | 325 |
| CC#CCn1c(=O)n(C)c2nc(Cl)nc(N3CCCC(NC)C3)c21 (centres unmarked) [Example 28, 7-(2-Butynyl)-2-chloro-9-methyl-6-(3-methylamino-piperidin-1-yl)-7,9-dihydropurin-8-one trifluoroacetic acid salt] | 89500 |
| CC#CCn1c(=O)n(CCCC#N)c2nc(Cl)nc(N3CCNCC3)c21 [Example 37, 4-[7-(2-Butynyl)-2-chloro-8-oxo-6-(piperazin-1-yl)-7,8-dihydropurin-9-yl]butyronitrile trifluoroacetic acid] | 149 |
| CC#CCn1c(=O)n(-c2ccoc2)c2nc(Cl)nc(N3CCNCC3)c21 [Example 44, 7-(2-Butynyl)-2-chloro-9-(furan-3-yl)-6-(piperazin-1-yl)-7,9-dihydropurin-8-one trifluoroacetic acid salt] | 132 |
| CC#CCn1c(=O)[nH]c2ncnc(N3CCNCC3)c21 [Example 75, 7-(2-Butynyl)-6-(piperazin-1-yl)-7,9-dihydropurin-8-one trifluoroacetic acid salt] | 921 |
| CCC#CCn1c(=O)n(C)c2nc(Cl)nc(N3CCNCC3)c21 [Example 18, 2-Chloro-9-methyl-7-(2-pentynyl)-6-(piperazin-1-yl)-7,9-dihydropurin-8-one trifluoroacetic acid salt] | 972 |
| CC#CCn1c(=O)n(-c2cccnc2)c2nc(OC)nc(N3CCNCC3)c21 [Example 55, 7-(2-Butynyl)-2-methoxy-6-(piperazin-1-yl)-9-(pyridin-3-yl)-7,9-dihydropurin-8-one trifluoroacetic acid salt] | 37.2 |
| CC#CCn1c(=O)n(C)c2nc(N)nc(N3CCNCC3)c21 [Example 6, 2-Amino-7-(2-butynyl)-9-methyl-6-(piperazin-1-yl)-7,9-dihydropurin-8-one trifluoroacetic acid salt] | 450 |
| CC#CCn1c(=O)n(CC#N)c2nc(Cl)nc(N3CCNCC3)c21 [Example 32, [7-(2-Butynyl)-2-chloro-8-oxo-6-(piperazin-1-yl)-7,8-dihydropurin-9-yl]acetonitrile trifluoroacetic acid salt] | 212 |
| CC#CCOc1nc(N2CCNCC2)c2c(n1)n(C)c(=O)n2CC#CC [Example 16, 7-(2-Butynyl)-2-(2-butynyloxy)-9-methyl-6-(piperazin-1-yl)-7,9-dihydropurin-8-one trifluoroacetic acid salt] | 364 |
| CC#CCn1c(=O)n(CCC)c2nc(Cl)nc(N3CCNCC3)c21 [Example 30, 7-(2-Butynyl)-2-chloro-6-(piperazin-1-yl)-9-propyl-7,9-dihydropurin-8-one trifluoroacetic acid salt] | 132 |
| CC#CCn1c(=O)n(C)c2nc(Cl)nc(N3CCCC(N)C3)c21 (centres unmarked) [Example 27, 6-(3-Amino-piperidin-1-yl)-7-(2-butynyl)-2-chloro-9-methyl-7,9-dihydropurin-8-one trifluoroacetic acid salt] | 3140 |
| CC#CCn1c(=O)n(CC(N)=O)c2nc(Cl)nc(N3CCNCC3)c21 [Example 33, 2-[7-(2-Butynyl)-2-chloro-8-oxo-6-(piperazin-1-yl)-7,8-dihydropurin-9-yl]acetamide trifluoroacetic acid salt] | 163 |
| C#CCn1c(=O)n(CC#CC)c2c(N3CCNCC3)ncnc21 [Example 70, 7-(2-Butynyl)-6-(piperazin-1-yl)-9-(2-propynyl)-7,9-dihydropurin-8-one trifluoroacetic acid salt] | 94.8 |
| CC#CCn1c(=S)n(C)c2ncnc(N3CCNCC3)c21 [Example 84, 7-(2-Butynyl)-9-methyl-6-(piperazin-1-yl)-7,9-dihydropurin-8-thione trifluoroacetic acid salt] | 13600 |
